target: T1, DNA-PK (Homo sapiens (Human), UniProt P78527); experiment: DNA-PK/biochemical assay (FlashPlate kinase assay); conditions: 5 μM ATP, 90 min, room temperature; read-out: Binding DNA-PK IC50
Procedure: […] To this end, 1.5 μg of the DNA-PK/protein complex and 100 ng of biotinylated substrate, such as, for example, PESQEAFADLWKK biotin-NH2 (“biotin-DNA-PK peptide”), in a total volume of 36.5 μl (34.25 mM HEPES/KOH, 7.85 mM Tris-HCl, 68.5 mM KCl, 5 μM ATP, 6.85 mM MgCl2, 0.5 mM EDTA, 0.14 mM EGTA, 0.69 mM DTT, pH 7.4), were incubated at room temperature for 90 min with 500 ng of DNA from calf thymus, 0.1 μCi of 33P-ATP and 1.8% of DMSO per well with or without the test compound. The reaction was stopped using 50 μl/well of 200 mM EDTA. After incubation for a further 30 min at room temperature, the liquid was removed. Each well was washed three times with 100 μl of 0.9% sodium chloride solution. A non-specific reaction (blank value) was determined using 10 μM of a proprietary kinase inhibitor. The radioactivity measurement was carried out by means of a TopCount. IC50 values were calculated in RS1. • Literature: Kashishian et al. (2003) Molecular Cancer Therapeutics 1257.

IC50 [nM]	Structure (SMILES)
< 100	Cc1cnc(C(O)C2CCCN(c3ncnc4cc(N5CCOCC5)ccc34)C2)s1 (stereo not drawn) [compound 47, (5-Methyl-thiazol-2-yl)-[1-(7-morpholin-4-ylquinazolin-4-yl)-piperidin-3-yl]-methanol]
< 100	Cc1nc(C(O)C2CCCN(c3ncnc4cc(N5CCOCC5)ccc34)C2)sc1C (stereo not drawn) [compound 48, (4,5-Dimethyl-thiazol-2-yl)-[1-(7-morpholin-4-yl-quinazolin-4-yl)-piperidin-3-yl]-methanol]
< 100	Cc1csc(C(O)C2CCCN(c3ncnc4cc(N5CCOCC5)ccc34)C2)n1 (stereo not drawn) [compound 49, (4-Methylthiazol-2-yl)-[1-(7-morpholin-4-ylquinazolin-4-yl)-piperidin-3-yl]-methanol]
< 100	O=C(c1nccs1)C1CCCN(c2ncnc3cc(N4CCOCC4)ccc23)C1 (stereo not drawn) [compound 50, [1-(7-Morpholin-4-yl-quinazolin-4-yl)-piperidin-3-yl]-thiazol-2-yl-methanone]
< 100	Cc1cnc(CC2CCCN(c3ncnc4cc(N5CCOCC5)ccc34)C2)s1 (stereo not drawn) [compound 51, 4-[3-(5-Methyl-thiazol-2-ylmethyl)-piperidin-1-yl]-7-morpholin-4-yl-quinazoline]
< 100	Cc1nc(CC2CCCN(c3ncnc4cc(N5CCOCC5)ccc34)C2)sc1C (stereo not drawn) [compound 52, 4-[3-(4,5-Dimethyl-thiazol-2-ylmethyl)-piperidin-1-yl]-7-morpholin-4-yl-quinazoline]
< 100	OC(c1ncco1)C1CCCN(c2ncnc3cc(N4CCOCC4)ccc23)C1 (stereo not drawn) [compound 53, [1-(7-Morpholin-4-yl quinazolin-4-yl)-piperidin-3-yl]-oxazol-2-yl-methanol]
> 1000	Oc1nc(N2CCCCC2)c2ccc(N3CCOCC3)cc2n1 [compound 54, 7-Morpholin-4-yl-4-piperidin-1-yl-quinazolin-2-ol]
100 to 500	Cn1ccnc1C(O)C1CCCN(c2ncnc3cc(N4CCOCC4)ccc23)C1 (stereo not drawn) [compound 55, (1-Methyl-1H-imidazol-2-yl)-[1-(7-morpholin-4-yl-quinazolin-4-yl)-piperidin-3-yl]-methanol]
< 100	Cc1csc(CC2CCCN(c3ncnc4cc(N5CCOCC5)ccc34)C2)n1 (stereo not drawn) [compound 56, 4-[3-(4-Methyl-thiazol-2-ylmethyl)-piperidin-1-yl]-7-morpholin-4-yl-quinazoline]
500 to 1000	Nc1nc(N2CCCCC2)c2ccc(N3CCOCC3)cc2n1 [compound 57, 7-Morpholin-4-yl-4-piperidin-1-yl-quinazolin-2-ylamine]
100 to 500	N#Cc1nc(N2CCCCC2)c2ccc(N3CCOCC3)cc2n1 [compound 58, 7-Morpholin-4-yl-4-piperidin-1-yl-quinazoline-2-carbonitrile]
< 100	O=C(NC1CCCN(c2nc(Cl)nc3cc(N4CCOCC4)ccc23)C1)c1cncs1 (stereo not drawn) [compound 59]
< 100	O=C(NC1CCCN(c2nc(Cl)nc3cc(N4CCOCC4)ccc23)C1)c1nccs1 (stereo not drawn) [compound 60, N-[1-(2-Chloro-7-morpholin-4-yl-quinazolin-4-yl)-piperidin-3-yl]-thiazole-2-carboxamide]
100 to 500	O=C(NC1CCCN(c2nc(Cl)nc3cc(N4CCOCC4)ccc23)C1)c1cscn1 (stereo not drawn) [compound 61]
100 to 500	O=C(NC1CCCN(c2nc(Cl)nc3cc(N4CCOCC4)ccc23)C1)c1cccs1 (stereo not drawn) [compound 64, N-[1-(2-Chloro-7-morpholin-4-yl-quinazolin-4-yl)-piperidin-3-yl]-thiophene-2-carboxamide]
< 100	O[C@@H](c1nccs1)C1CCCN(c2ncnc3cc(N4CCOCC4)ccc23)C1 (stereo partly drawn) [compound 65, (R)-[1-(7-Morpholin-4-ylquinazolin-4-yl)-piperidin-3-yl]-thiazol-2-yl-methanol]
< 100	O[C@H](c1nccs1)C1CCCN(c2ncnc3cc(N4CCOCC4)ccc23)C1 (stereo partly drawn) [compound 66]

target: T1, DNA-PK; experiment: not given; conditions: ATP-competitive; Hardcastle et al. (2005); cited from earlier work

Structure (SMILES)	IC50 [nM]
O=c1cc(N2CCOCC2)oc2c(-c3cccc4c3sc3ccccc34)cccc12 [NU-7441]	20

tested on: mammal cells; experiment: not given; conditions: Rosenzweig et al. (1999); cited from earlier work

Structure (SMILES)	increase in sensitivity to ionising irradiation in cellular terms
O=c1cc(N2CCOCC2)oc2c(-c3ccccc3)cccc12 [LY294002]	only a weak increase in sensitivity to ionising irradiation

tested on: kinases of the PI3K isoenzyme family; experiment: not given; conditions: cited from earlier work

Structure (SMILES)	inhibition of PI3K isoenzyme family kinases
CCN1CCN(CC(=O)Nc2ccc(-c3cccc4c(=O)cc(N5CCOCC5)oc34)c3sc4ccccc4c23)CC1 [KU-0060648]	potently inhibited
